US20090041862A1, “Detecting disease association with aberrant glycogen synthase kinase 3beta expression” (priority 2004, published 2009)

Columns and labels:
[1] = system: GSKΔexon9+11; assay: Inhibition of endogenous Tau [pS396] phosphorylation in COS-7 cells transfected with GSKΔexon9+11 cDNA (ELISA); format: cell-based, human
Method: Lymphocytes (as described in Example 3) or transfected cells were lysed in 1× Lysis buffer (50 mM Tris.HCl (pH 7.4), 150 mM NaCl, 1 mM PMSF, 1× complete cocktail protease inhibitor (Boehringer Mannheim) and 0.05% Triton X-100. Approximately 2-25 μg of total protein was used to assay for total Tau or Tau phosphorylated at serine residue 396 using the Human Tau or Human Tau [pS396] ELISA kit respectively (Biosource International, CA, USA).
COS-7 cells plated onto 12 well plates at concentration of 1×10^5 cells/well and allowed to recover for 24 hours. Each well was transfected with either the GSKΔexon9 or GSKΔexon9+11 cDNA constructs (as described in Example 4) using Lipofectamine 2000.

[2] = molecular target: Tau (endogenous Tau protein in COS-7 cells); assay: cell-based or functional assay

Row | levels of Tau [pSer396] by ELISA in COS-7 cells transfected with GSK-3β isoform cDNAs [2] [fold] | Molecule | increase in sensitivity of GSKΔexon9+11 compared with GSKΔexon9 ([1]; ratio of IC50 values, COS-7 cells) [fold] | suppressing the level of tau phosphorylation in a cell expressing GSK-3β lacking exon 9 and exon 11 vs lacking exon 9 ([1]; result in words)
1 |  | Cn1sc(=O)n(Cc2ccccc2)c1=O [TDZD8] | 2 | at a level greater than observed in a cell expressing GSK-3β lacking exon 9
2 | 2.5 | GSK-3β lacking exon 9 and exon 11 (GSKΔexon9+11 isoform) (from UniProt P49841 1-420) |  | 
